In patent US20030125363A1, “Riluzole and alpha-tocopherol combination” (priority 1998, published 2003):

Test system: patients suffering from ALS
[1] = after 12 months of treatment, Munsat functional states

Experimental: The study was carried out in 289 patients in total aged over 18 years, who have been suffering from ALS for less than 5 years and in whom the vital capacity/theoretical normal vital capacity ratio is greater than or equal to 60% (the vital capacity is a routine conventional measurement of the respiratory function also called lung function test).
The patients are divided into 2 groups:
group 1: 145 patients treated with 100 mg/day of riluzole by the oral route and 1000 mg/day of α-tocopherol by the oral route,
group 2: 144 patients treated with 100 mg/day of riluzole by the oral route and placebo.
The patients are monitored for a year. The results are measured on functional scales (Munsat's functional states (RIVIERE et al., Arch. Neurol., 55, 526 (1998)), a visual analog scale (VAS) for fatigability (LACOBLEZ et al., The Lancet, 347, 1425 (1996); BENSIMON et al., New England Journal of Medicine, 330, 585 (1994)) and plasma concentration of malondialdehyde, a biochemical marker for oxidative stress (FAVIER, Analysis of free radicals in biological systems, Birk Hauser, Basel/Switzerland, 1995 p. 100-117).
The Munsat functional state A relates to patients in an average or mild state:
average state: average deficiency in 3 regions (speech, arm and leg), functionally independent in speech, activities of the upper extremities in daily and ambulatory life,
mild state: average deficiency in 3 regions or mild to severe deficiency in one region while the other two regions are normal or slightly affected.
The Munsat functional state B relates to patients in the severe or final state:
severe state: need for assistance in 2 or 3 regions, dysarthric speech and/or patients requiring assistance to walk and/or requiring assistance for the activities of the upper extremities in daily life,
final state: nonfunctional use of at least 2 regions and mild or nonfunctional use of the third region.
The progression of the functional states A and B is determined at the time of inclusion (M0) and after 12 months of treatment (M12).

Nc1nc2ccc(OC(F)(F)F)cc2s1 [RILUZOLE AND PLACEBO, 2-amino-6-trifluoromethoxybenzothiazole]
Condition after treatment (M12): state A (Munsat functional state A (average or mild), after 12 months of treatment, riluzole 100 mg/day oral, α-tocopherol 1000 mg/day oral or placebo): 56 number of patients
Condition on inclusion (M0): state A (Munsat functional state A (average or mild), baseline at inclusion M0, oral treatment): 109 number of patients
Condition after treatment (M12): state B (Munsat functional state B (severe or final), after 12 months of treatment, riluzole 100 mg/day oral, α-tocopherol 1000 mg/day oral or placebo): 63 number of patients
Condition on inclusion (M0): state B (Munsat functional state B (severe or final), baseline at inclusion M0, oral treatment): 10 number of patients
patients who did not exhibit any change [1]: 66 patients
patients who did not exhibit any change (percent) [1]: 55.3%
patients who exhibited a worsening of the disease [1]: 53 patients
patients who exhibited a worsening of the disease (percent) [1]: 44.5%
